The melting point is the temperature, or range, at which the solid turns liquid.

Consider `CNC(=O)C(SC)c1cc(Cl)cc(C(=O)c2ccccc2)c1N` (configuration not stated), for which the melting point was in the range of 170 to 171 °C.

As to `CN1CCCc2ccc(NC(=O)c3cc4cc(F)ccc4n3Cc3cccc(F)c3)cc21`, the melting point fell in the range of 159 to 160 °C.

For the molecule `C[C@@H](Oc1cc(-c2ncc(C(F)(F)F)cc2F)c(F)cc1Cl)C(=O)O`, the melting point fell in the range of 48 to 50 °C.

Molecule `N[C@@]1(C(=O)O)C[C@H](NC(=O)Nc2ccccc2Cl)[C@H]2[C@H](C(=O)O)[C@H]21` (relative stereo) yielded a melting point of more than 250 °C.

`CCn1ncc2c1ncc1c(=O)[nH]c3nc(SC)nn3c12` yielded a melting point of more than 300 °C.

In turn, `CC(C)(C)OC(=O)NCc1ccc(N)cc1` came in with a melting point of 74.4 °C.

Regarding `C=CCNc1nc(NC23CC4CC(CC(C4)C2)C3)c2scc(C)c2n1`, the melting point was in the range of 107 to 109 °C.

`N#Cc1ccc(-c2cnc3cnc(-c4ccc(O)cc4)nc3c2)cc1` came in with a melting point of 313 to 314 °C.

In turn, `CC(=O)Oc1ccc(Cl)cc1C(=O)Cl` returned a melting point of 35 to 38 °C.

In turn, `COc1nc2ccccc2cc1NC(=O)N1CCN(c2cccc3ccccc23)CC1` showed a melting point of 158 to 160 °C.

For the molecule `CC(=O)N[C@@H](C)c1ccc(CO)cc1`, the melting point was 103 to 104 °C.

The molecule `COc1ccc(Nc2nc(N)c3[nH]c(C)cc3n2)cc1` displayed a melting point of 161 to 163 °C.

The molecule `CC1SC=C2c3ccccc3C=CN2C1=O` (configuration not stated) registered a melting point of 67 to 68 °C.

The molecule `O=C(CCc1ccccc1)N1C(=O)OC[C@@H]1Cc1ccccc1` returned a melting point of 92 to 95 °C.

In turn, `CCc1c(C)[nH]c(=O)c(I)c1Oc1cc(I)cc(CC#N)c1` had a melting point of 220 °C.

Consider `N#Cc1ccc(C(=C2C3CC4CC(C3)CC2C4)c2ncc[nH]2)cc1`, for which the melting point came out at 155 °C.

Molecule `COc1ccc(OC2CN(S(=O)(=O)c3ccc(C)cc3)CCc3ccccc32)cc1` (configuration not stated) came in with a melting point of 84 to 85 °C.

`CN1CCC(=O)N(c2ccccc2)c2cc(Cl)ccc21` came in with a melting point of 143 to 144 °C.

`OC(CCc1ccccc1)Cn1ccnc1` (configuration not stated) gave a melting point of 106 to 107 °C.

`O=[N+]([O-])c1oc2ccc(CN3CCCC3)cc2c1-c1ccccc1` returned a melting point of 111 to 112 °C.

`O=C(O)CCCCCNS(=O)(=O)c1ccc(Cl)cc1` came in with a melting point of 126 to 127 °C.

In the case of `CC(=O)NC[C@H]1CN(c2ccc(N3CCC(=CC#N)C(C)(C)C3)c(F)c2)C(=O)O1`, the melting point is 150 to 152 °C.

In the case of `CCc1cn(C2CCC(CNC(=O)Cc3c(Cl)cccc3Cl)O2)c(=O)[nH]c1=O` (configuration not stated), the melting point was in the range of 237 to 238 °C.

For `O=C1Nc2ccc(C(O)c3ccc(Cl)cc3)cc2C(c2cccc(Cl)c2)N1` (configuration not stated), the melting point came out at 231 °C.

`CSc1nc(O)cc(OC(F)F)n1` returned a melting point of 236 to 237 °C.

In the case of `CCCCc1ncc(/C=C(\Cc2cccs2)c2nnn[nH]2)n1Cc1ccc(-c2nnn[nH]2)cc1`, the melting point was in the range of 227 to 230 °C.

Consider `CCCc1c(OCCc2cc3cc(CC(=O)O)ccc3[nH]2)ccc2c(-c3ccccc3)coc12`, for which the melting point is 129 to 130 °C.

`CN(CCS(C)(=O)=O)C1CCN(S(=O)(=O)c2ccc(Nc3nccc(-c4ccc(F)cc4)n3)cc2)CC1` came in with a melting point of 166 °C.

As for `CN(C)C1CCN(c2ccc(NC(=O)n3ccc4cc(Oc5cc(CC(N)=O)ncn5)ccc43)cc2C(F)(F)F)C1` (configuration not stated), the melting point lay in the range of 182 to 184 °C.

The molecule `CC(=O)C1C(C(=O)c2ccc(Br)cc2)CC2C3CCC4=CC(=O)C=CC4(C)C3(F)C(O)CC21C` (configuration not stated) showed a melting point of 285 to 286 °C.

As to `c1n[nH]c2c1Cc1[nH]ncc1-2`, the melting point came to 180 °C.

Take `CC(C)(C)Cc1ccc(Oc2ccc(C(O)c3ccncc3)cc2)cc1` (configuration not stated): the melting point is 120 to 122 °C.

As to `c1ccc(Nc2c(-c3ccccc3)sc3ccccc23)cc1`, the melting point fell in the range of 142 to 143 °C.

Consider `NC(=O)c1ccc(C=CC(=O)N2CCc3c([nH]c4ccccc34)C2c2ccc3c(c2)OCO3)cc1` (configuration not stated), for which the melting point was 183 °C.

In the case of `CCOC(=O)c1c(-c2ccc(F)cc2)cc(-c2cccs2)nc1C(C)C`, the melting point lay in the range of 114 to 115 °C.

`COC(=O)C(C)Oc1ccc(Oc2cnc3ccccc3n2)cc1` (configuration not stated) yielded a melting point of 110 to 115 °C.

The molecule `COc1c(Cc2c[nH]c3cccc(C(=O)O)c23)[nH]c(=O)c(CC(C)C)[n+]1[O-]` came in with a melting point of 160 to 164 °C.

In the case of `CCn1nc(-c2ncc(N)nc2-c2ccccc2)ccc1=O`, the melting point lay within 227 to 229 °C.

The molecule `Brc1ccc2ccncc2c1` returned a melting point of 78 to 79 °C.

Regarding `CNC(=O)NCCn1c(-c2ccc(CN3CCOCC3)cc2)csc1=Nc1ccc(F)c(C)c1`, the melting point lay within 142 to 145 °C.

Consider `CCCCCCCCNc1c(Nc2ccc(CC(C)NC[C@H](O)COc3ccc(O)cc3)cc2)c(=O)c1=O` (some centres not stated), for which the melting point fell in the range of 122 to 127 °C.

In turn, `COc1ccccc1-c1cccc(C(c2ccccc2)c2ccccc2)c1O` yielded a melting point of 131 °C.

`Cc1cc(OCc2ccccc2)cc(C)c1CC(=O)O` registered a melting point of 149 to 150 °C.

Molecule `O=C(c1cncc(Br)c1)N1CCC(c2ccccc2)=N1` came in with a melting point of 113 to 115 °C.

On to `O=C(Nc1cc(Cl)cc2c(Cl)ccnc12)c1c(Cl)cccc1Cl`, for which the melting point fell in the range of 201 to 205 °C.

As for `COc1ccc(-c2nc(Sc3ccc(C(C)(C)C)cc3)[nH]c2-c2ccc(OC)cc2)cc1`, the melting point lay in the range of 172 to 174 °C.

In the case of `c1ccc(Cc2cnc(N3CCN(c4ncnc5ccccc45)CC3)nc2)cc1`, the melting point was more than 250 °C.

For `O=C(O)c1ccccc1NC(C(=O)O)c1ccc(Br)cc1` (configuration not stated), the melting point was 216 °C.

For the molecule `CN1CCN(C(=O)OC2c3ccccc3C(=O)N2c2ccc3c(Cl)ccnc3n2)CC1` (configuration not stated), the melting point turned out to be 240 °C.

Consider `CC(C)(C)C(NC(=O)Cc1ccc2ncccc2c1)NC(=NC#N)Nc1cccc2ncccc12` (configuration not stated), for which the melting point fell in the range of 150 to 151 °C.

Molecule `CC(C)(C)c1cc(C(C)(C)C)c(=O)c2nc3ccccc3sc1-2` showed a melting point of 137 to 141 °C.

As to `CC(C)(C)OC(=O)NC(CC#N)COc1noc2ccc(Cl)cc12` (configuration not stated), the melting point was 147 to 148 °C.

`COC(=O)COc1ccc(SCc2cc(-c3ccc(Cl)cc3)on2)cc1C` gave a melting point of 79 to 80 °C.

On to `O=C(NCCOc1ccc(CC(Oc2ccc(F)c(F)c2)C(=O)O)cc1)c1ccc(-c2ccccn2)cc1` (configuration not stated), for which the melting point lay within 135 to 136 °C.

With `CCc1nc2c(O)cc(C(=O)N(C)C)cc2n1C`, the melting point lay within 193 to 199 °C.

Molecule `C=C1NC(NC(C)CC)=C(C(=O)OCC)C(NN)=C1C#N` (configuration not stated) registered a melting point of 120 to 121 °C.

Regarding `CCCCCCCCCCCCc1ccc(S(=O)(=O)Nc2nnc(CO)s2)cc1`, the melting point lay in the range of 138 to 139 °C.

In turn, `NC(=O)OC[C@H]1NC(=O)[C@H]1NC(=O)OCc1ccccc1` yielded a melting point of 192 to 193 °C.

`O=C(O)CS(=O)CCCCCNS(=O)(=O)c1ccc(Cl)cc1` (configuration not stated): the melting point was 91 to 92 °C.

Regarding `COC(=O)C1=C(C)Nc2nccn2C1c1cccc(C2(C)OCCO2)c1` (configuration not stated), the melting point is 199 to 201 °C.

With `N#CCCNNC(=O)c1ccc(OCc2ccccc2)cc1`, the melting point was determined as 136 °C.

The molecule `O=C(Nc1ccc(-c2nc(-c3ccco3)no2)c(Cl)c1)Oc1ccccc1` returned a melting point of 184 to 186 °C.

The molecule `CC[C@H](C)C(OCc1ccccc1)[C@H]1[C@H]([N+](=O)[O-])[C@H](c2ccccc2)N[C@@H]1C(=O)NCCC(=O)O` (some centres not stated) yielded a melting point of 140 to 141 °C.

For `FC(F)(F)c1ccc(-c2cc(Oc3ccc4cccnc4c3)ncn2)cc1`, the melting point lay in the range of 178 to 180 °C.

As for `CS(=O)(=O)c1ccc(-c2cnn(-c3ccc(F)c(F)c3)c(=O)c2Oc2ccc(Br)cc2)cc1`, the melting point lay within 196 to 199 °C.

`C=CCOn1c(=O)c2cc(F)c(F)cc2n(Cc2ccccc2)c1=O` gave a melting point of 130 to 132 °C.

For the molecule `Cc1cccc2c1N(CC(=O)N1CC3CCC(CC3)C1)CC(NC(=O)Nc1cccc(Br)c1)N=C2c1ccccc1F` (configuration not stated), the melting point is more than 250 °C.

`O=S(=O)(Nc1cc(Cl)cc(Cl)c1)c1cc(S(=O)(=O)Nc2cc(Cl)cc(Cl)c2)c2cc(O)ccc2c1` had a melting point of 122 to 124 °C.

`Cc1ccc(-c2ncncc2Br)cc1`: the melting point lay within 81 to 82 °C.

As to `CC(C)N1CCC(C(C(N)=O)(c2ccccc2)c2ccccc2)C1` (configuration not stated), the melting point was 110 to 112 °C.

As to `CCOC1(C(Cl)(Cl)Cl)NC(=O)C(=O)N1`, the melting point was 189 to 201 °C.

In turn, `CCCNC(=O)n1nc(Oc2c(Cl)cc(C(F)(F)F)cc2[N+](=O)[O-])cc1C` gave a melting point of 111 to 113 °C.

Molecule `CC(C)(C)C(CS(=O)(=O)c1ccc(Oc2ccc(OC(F)(F)F)cc2)cc1)N(O)C=O` (configuration not stated) showed a melting point of 160 °C.

The molecule `CN(Cc1cccc2c1CN(C1CCC(=O)NC1=O)C2=O)C(=O)Nc1cc(Cl)cc(Cl)c1` (configuration not stated) displayed a melting point of 285 to 287 °C.

In turn, `N=C(N)Nc1nc(CSCCNC2=C([N+](=O)[O-])CCCN2)cs1` had a melting point of 211 to 212 °C.

As to `Cc1cccc(-c2ccccc2NC(=N)N(C)C)c1`, the melting point was 116 °C.

Molecule `c1cc(-c2ccc(N3CCNCC3)cc2)[nH]n1` had a melting point of 290 °C.

Consider `O=C(Nc1ccc(N(CCCl)CCCl)cc1)Nc1c2ccccc2nc2ccccc12`, for which the melting point lay in the range of 184 to 186 °C.

Molecule `COC(=O)C1=CC(C(=O)c2cc(Br)cc(Br)c2O)=CN2CCc3c([nH]c4ccccc34)C12C(=O)OC` (configuration not stated) showed a melting point of 131 °C.

`CCCOc1ccccc1-c1nc2nc(NCC(=O)OCC)ncc2c(=O)[nH]1` registered a melting point of 174 to 176 °C.

For the molecule `CN(C[C@H]1CC[C@H](c2nc3ccccc3n2C)CC1)C(=O)OCc1ccccc1`, the melting point lay in the range of 141 to 142 °C.

Take `Cn1c2ccc(Cl)cc2c2c3ccccc3c(OCC3CC3)nc21`: the melting point lay within 141 to 142 °C.

For the molecule `Fc1cc(Nc2ccc(Oc3ccccc3)cc2)ccn1`, the melting point was determined as 149 °C.

`Nc1ccc(-c2noc(-c3cnn4c(C(F)(F)F)cc(-c5ccc(Cl)c(Cl)c5)nc34)n2)cn1` came in with a melting point of 289 °C.

Take `CCn1c(=O)c2[nH]c(/C=C/c3ccc(OC)c(C)c3OC)nc2n(CC)c1=O`: the melting point is more than 275 °C.

Molecule `CCc1cc2c(s1)SCCc1cc(=O)n(C)nc1-2` had a melting point of 168 to 170 °C.

Consider `CCc1nc2cnc3cc(C=CC(=O)N(C)C)ccc3c2n1CC(C)(C)O`, for which the melting point lay in the range of 196 to 198 °C.
